What was measured:
[1] = In vivo pharmacokinetic evaluation in mouse; parameters: species or system C57BL/6 female mice; conditions: mice; for clearance / AUC / bioavailability: female, C57BL/6, mouse, plasma; for clearance: iv, i.v. 1 mg/Kg; for AUC po (5 mg/Kg) / AUC: oral gavage 5 mg/Kg; for bioavailability: po, 5 mg/kg
Procedure: In order to study the pharmacokinetic (PK) profile of test compounds in vivo, Sprague Dawley male rats or C57BL/6 female mice were dosed intravenously or after oral gavage. For both species, test compounds were dosed in solution at 1 mg/kg for i.v. route (10% ethanol, 10% N,N-dimethylacetamide, 30% propylene glycol, 50% water, v/v) and in suspension at 5 mg/kg (0.5% carboxymethylcellulose suspension, containing 0.25% Tween 20 in water) for oral gavage. PK profile in rat was obtained from 3 animals per dosing route and mouse PK profile was determined from 3 animals for each time points. The volume of administration was 2 mL/kg for i.v. dosing in both species and either 5 mL/kg (rat) or 10 mL/kg (mouse) for oral gavage. Blood samples (100 μL/time point) were collected at 0.083 (5 min), 0.25, 0.5, 1, 4, 7 and 24 hours post-dose for i.v. dosing, and at 0.5, 1, 4, 7 and 24 h for oral dosing, into heparin-Li+ containing tubes. For rats, all blood samples were collected trough a catheter in the carotid artery (placed in the artery the day before the experiment), under light isoflurane anesthesia, and stored on ice until centrifugation and plasma isolation. For mouse, blood samples were collected from intracardiac puncture at sacrifice at each time point and processed as described above for the rat. Plasma samples were stored frozen until analysis (−20° C. to −70° C.). For bioanalysis, samples were processed by protein precipitation (acetonitrile, formic acid 0.1%, addition of 3 volumes) after addition of one internal standard and analysed using a sensitive and selective LC/MS/MS method. An aliquot of the resulting supernatant was subject to LC/MS/MS analysis using a reverse phase column (Waters Xterra, C8, (3.5 μm particle size, 2.1×50 mm) and a short gradient (1 min) from (Solvent A) 85% water, 15% acetonitrile and 0.1% formic acid to (Solvent B) 90% acetonitrile, 10% water and 0.1% formic acid followed by isocratic conditions of Solvent B for 3.5 min at 0.4 mL/min. Column effluent was monitored using a Sciex API 4000 triple quadrupole mass spectrometer with a Turbo V electrospray ion source. Unknown concentrations of test compounds were determined using a calibration curve ranging from 1 to 3000 ng/mL.

CRTH2 = biological target: T1, CRTH2 (Homo sapiens, UniProt Q9Y5Y4); assay: Radioligand binding Scintillation Proximity Assay ([3H]PGD2, hCRTH2-CHO cell membranes); parameters: host or cells: CHO cells; conditions: 1.5 nM [3H]PGD2, hCRTH2-CHO cell membranes, SPA
T1 sequence (Q9Y5Y4 1-395): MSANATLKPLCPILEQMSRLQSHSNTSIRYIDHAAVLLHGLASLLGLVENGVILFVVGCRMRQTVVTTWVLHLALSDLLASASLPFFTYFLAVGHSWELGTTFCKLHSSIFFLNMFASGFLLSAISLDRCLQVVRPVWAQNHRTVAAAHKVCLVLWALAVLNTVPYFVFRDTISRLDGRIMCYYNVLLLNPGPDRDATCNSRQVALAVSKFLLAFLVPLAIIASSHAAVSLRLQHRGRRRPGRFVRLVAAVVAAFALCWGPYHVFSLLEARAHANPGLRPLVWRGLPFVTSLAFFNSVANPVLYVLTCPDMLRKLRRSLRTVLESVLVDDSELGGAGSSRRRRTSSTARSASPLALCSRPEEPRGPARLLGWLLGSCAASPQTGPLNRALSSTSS
Procedure, shortened: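 SPA competition binding at room temperature, 90 min with agitation: 1.5 nM [3H]PGD2, 10-50 μg/ml hCRTH2-CHO membrane protein, WGA SPA beads, HEPES pH 7.4 with 10 mM MnCl2, 1% DMSO. Non-specific binding defined with 10 μM PGD2; scintillation counting.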

[2] = tested on: eosinophils in human whole blood; assay: PGD2-induced eosinophil cell shape assay in human whole blood; type: cell-based; conditions: 10 nM PGD2 final, flow cytometry
Procedure: The Compounds of Formula (I) were diluted in dimethylsulphoxide so that the total volume of dimethylsulfoxide was kept constant at 2% dimethylsulphoxide (Me2SO). Serial dilutions of 200 μM to 0.09 μM were prepared. Samples of 90 μl of human blood from healthy volunteers (Centre de Transfusion Sanguine de Genève) were pre-incubated in polypropylene Falcon tubes (BD 352063) for 20 minutes in a water bath at 37° C. with 10 μl of diluted compounds. For CRTH2 activation, 100 μl PGD2 (Cayman 12010) at 20 nM was added (10 nM final) to each tube and cells were maintained at 37° C. For negative control cells were treated with PBS. After 10 minutes, cell activation was stopped with 120 μl Formaldehyde 10% (4% final, Fluka 41650) and cells were rested for 10 minutes at room temperature. Fixed cells were transferred into polypropylene tubes and then treated for 1 hour in a water bath at 37° C. with 2 ml of Triton-Surfact-Amps X-100 (Pierce 28314) at 0.166% (0.13% Triton final). After several washes with PBS (red cells lysed progressively during washes, two washes are necessary), cells were analyzed by flow cytometry on a FACSCalibur. In one embodiment, the compounds of Formula (I) of the present invention are capable of blocking the cell shape change of eosinophils induced by PGD2 in Whole Blood.

SMILES | clearance [1] [mL/min/kg] | Oral bioavailability [1] [%] | AUC po (5 mg/Kg) [1] [ng·h/mL] | IC50 (CRTH2) [nM] | IC50 [2] [nM] | AUC [1] [ng·h/mL] | bioavailability [1] [%]
CCCS(=O)(=O)c1cccc(C#Cc2cc(Cl)ccc2OCC(=O)O)c1 [Example 17, (4-chloro-2-{[3-(propylsulfonyl)phenyl]ethynyl}phenoxy)acetic acid] | 5 | 37 | 5768 | 10 | 150 | – | –
CN(C)S(=O)(=O)c1cncc(C#Cc2cc(Cl)ccc2OCC(=O)O)c1 [Example 35, [4-chloro-2-({5-[(dimethylamino)sulfonyl]pyridin-3-yl}ethynyl)phenoxy]acetic acid] | 13.3 | 95 | – | 55 | 289 | 6210 | –
CCCS(=O)(=O)c1ccc(Cl)c(C#Cc2cc(Cl)ccc2OCC(=O)O)c1 [Example 101, (4-chloro-2-{[2-chloro-5-(propylsulfonyl)phenyl]ethynyl}phenoxy)acetic acid] | 16.7 | – | 5795 | 3 | 23 | – | 110
CC(C)S(=O)(=O)c1ccc(F)c(C#Cc2cc(Cl)ccc2OCC(=O)O)c1 [Example 102, (4-chloro-2-{[2-fluoro-5-(isopropylsulfonyl)phenyl]ethynyl}phenoxy)acetic acid] | 5.83 | – | 18691 | 5 | 91 | – | 130
CN(C)S(=O)(=O)c1ccc(F)c(C#Cc2cc(Cl)ccc2OCC(=O)O)c1 [Example 107, [4-chloro-2-({5-[(dimethylamino)sulfonyl]-2-fluorophenyl}ethynyl)phenoxy]acetic acid] | 10 | 58 | 4880 | 4 | 23 | – | –

Further molecules by falling IC50 (CRTH2), results first:

clearance [1] [mL/min/kg] | Oral bioavailability [1] [%] | AUC po (5 mg/Kg) [1] [ng·h/mL] | IC50 (CRTH2) [nM] | IC50 [2] [nM] | AUC [1] [ng·h/mL] | bioavailability [1] [%] | SMILES
1.67 | 57 | 30942 | 14 | – | – | – | O=C(O)COc1ccc(Cl)cc1C#Cc1ccc2c(c1)S(=O)(=O)c1ccccc1-2 [Example 154, {4-chloro-2-[(5,5-dioxidodibenzo[b,d]thien-3-yl)ethynyl]phenoxy}acetic acid]
6.67 | 63 | – | 6 | 23 | 6750 | – | CCCS(=O)(=O)c1ccc(F)c(C#Cc2cc(Cl)ccc2OCC(=O)O)c1 [Example 89, (4-chloro-2-{[2-fluoro-5-(propylsulfonyl)phenyl]ethynyl}phenoxy)acetic acid]
16.7 | – | 3685 | 5 | 81 | – | 80 | CCCS(=O)(=O)c1ccc(C)c(C#Cc2cc(Cl)ccc2OCC(=O)O)c1 [Example 38, (4-chloro-2-{[2-methyl-5-(propylsulfonyl)phenyl]ethynyl}phenoxy)acetic acid]
11.7 | 64 | 4889 | 4 | 67 | – | – | CC(C)S(=O)(=O)c1ccc(Cl)c(C#Cc2cc(Cl)ccc2OCC(=O)O)c1 [Example 103, (4-chloro-2-{[2-chloro-5-(isopropylsulfonyl)phenyl]ethynyl}phenoxy)acetic acid]
